Laboratory results: patent publication US6965033B2, “Bisamidate phosphonate prodrugs” (Metabasis Therapeutics, Inc., priority 1999, dated 2005)

Key:
[1] = Metabolism of 50.6 in human plasma; type: in vitro ADME; settings: 100 μM
Experimental: (§1) The metabolism of 50.6 was evaluated in rat, monkey, and human plasma by reverse phase HPLC with use of a Beckman Ultrasphere ODS column (4.6×150 mm) equipped with an Alltech All-Guard column. The column was equilibrated with 20 mM potassium phosphate, pH 6.2 and eluted with a linear gradient of 0-60% acetonitrile over 20 minutes at a flow rate of 1.5 mL/min and at a temperature of 40° C. UV absorbance was monitored at 300 nm. […] The metabolite formed in rat plasma was collected and subjected to mass spectrum analysis at Mass Consortium Corporation (San Diego, Calif.). […] This molecular weight is consistent with that of a monophosphoramidate intermediate. This intermediate is likely formed via a reaction mechanism in which the prodrug first undergoes full de-esterification followed by intramolecular, hydrolytic cleavage of one of the amino acyl substituents. Formation of the postulated monophosphoramidate intermediate was confirmed following the synthesis of a synthetic standard, Compound C. The standard had the identical HPLC and UV profile as the metabolite formed in plasma samples.

ZDF rat = experiment: Chronic Oral Efficacy in the ZDF Rat; type: in vivo
Experimental: Methods: ZDF rats (10 weeks of age) were maintained either on powdered Purina 5008 rat chow (n=10) or the same powdered chow supplemented with 0.4% 50.6 (n=8). Blood glucose measurements were made as described in Example E at baseline and at weekly intervals thereafter for a total of 3 weeks. Statistical analysis was performed using the Student's t test. Means±standard error of the means are shown.

[2] = Metabolism of 50.6 in rat plasma; type: in vitro ADME; settings: 100 μM
Experimental: as §1

human hepatocytes = experiment: Metabolism of 50.6 in Human Hepatocytes; type: in vitro ADME; settings: 10 μM
Experimental: Cryopreserved human hepatocytes were obtained from In Vitro Technologies and thawed according to the vendor's recommendations. Cells were incubated at 37° C. in a Krebs-bicarbonate based buffer containing 50.6 at 10 μM. At various time points over the course of 4 hours, aliquots of cells were removed and extracted by addition of methanol to 60%. Cell extracts were clarified by centrifugation and analyzed by reverse phase HPLC with use of a Beckman Ultrasphere ODS column (4.6×150 mm) equipped with an Alltech All-Guard column. […]. Disappearance of 50.6 was rapid and essentially complete within 60 minutes of incubation. […] The initial rate of 3.1 formation was 24 pmol/million cells/minute. […]

[3] = system: Zucker Diabetic Fatty (ZDF rat); experiment: Acute Oral Efficacy in the ZDF Rat; type: in vivo
Experimental: Methods: ZDF rats were purchased from Genetics Inc (Indianapolis, Ind.) at 8 weeks of age. Animals were maintained under standard vivarium conditions and provided with Purina 5008 chow and water ad libitum. At 10-12 weeks of age, rats with blood glucose levels>500 mg/dl were selected and dosed orally either with vehicle (PEG 400), or prodrug (60 mg/kg). Blood glucose levels were monitored at regular intervals for 6 hours following dosing. Blood samples were taken from tail vein nicks and analyzed by means of a HemoCue glucose analyzer (Hemocue, Mission Viejo, Calif.). Statistical analysis was performed using the Student's t test. Means±standard error of the means are shown.

[4] = system: Human Liver Phosphoramidase; experiment: Structure Activity Relationship of Human Liver Phosphoramidase (human liver homogenate); type: in vitro ADME; settings: pH 7.4
Experimental: Human liver, purchased from the Anatomic Gift Foundation (Laurel, Md.), was homogenized in Krebs-bicarbonate buffer and clarified by a slow-speed centrifugation. Prodrug metabolism was evaluated in reaction mixtures containing human liver homogenate (4 mgs protein), 50 mM Tris-HCl, pH 7.4, 10 mM MgCl2, and 10 mM dithiothreitol. At various time intervals over the course of 2 hours, aliquots were removed from the reaction mixtures and deproteinated by addition of methanol to 60%. Following clarification by centrifugation, metabolites were analyzed by reverse phase HPLC with use of a Beckman Ultrasphere ODS column (4.6×150 mm) equipped with an Alltech All-Guard column. The column was equilibrated with 20 mM potassium phosphate, pH 6.2 and eluted with a linear gradient of 0-60% acetonitrile over 20 minutes at a flow rate of 1.5 mL/min and at a temperature of 40° C. UV absorbance was monitored at 300 nm. Most of the prodrugs evaluated were metabolized via a non-rate limiting, esterase-catalyzed step to their monophosphoramidate form within 5 minutes of incubation. The rate of phosphonic acid appearance was therefore essentially a reflection of the rate of the final […] cleavage step. Results for representative prodrugs for which the esterase-catalyzed step was non-rate limiting are shown below: […]

[5] = Metabolism of 50.6 in monkey plasma; type: in vitro ADME; settings: 100 μM
Experimental: as §1

Structure (SMILES): CCOC(=O)[C@H](C)NP(=O)(N[C@@H](C)C(=O)OCC)c1ccc(-c2nc(N)sc2CC(C)C)o1 [Compound 50.6, 2-Amino-5-isobutyl-4-{2-[5-(N,N′-bis((S)-1-ethoxycarbonyl)ethyl)phosphonamido]furanyl}thiazole]
- metabolites formed in plasma [1]: single metabolite
- Blood glucose, t21 days (ZDF rat; 21 days on chow supplemented with 0.4% drug): 436 ± 41 mg/dL
- Blood Glucose, Tbaseline (ZDF rat; baseline, chow with 0.4% drug group): 674 ± 20 mg/dL
- metabolites formed in plasma [2]: single metabolite
- time to essentially complete disappearance (human hepatocytes; cryopreserved human hepatocytes, 37° C.): ≤ 60 min
- initial rate of 3.1 formation (human hepatocytes; human hepatocytes): 24 pmol/million cells/minute
- metabolites detected (human hepatocytes; human hepatocytes): Compound C and 3.1
- Blood Glucose, T6h ([3]; 6 h after 60 mg/kg oral): 406 ± 12 mg/dL
- Blood Glucose, % Change ([3]; baseline to 6 h, 60 mg/kg oral): −25%
- Blood Glucose, Tbaseline ([3]; baseline, 60 mg/kg oral group): 544 ± 25 mg/dL
- Phosphoramidase Activity (Rate of 3.1 or 3.58 production, nmoles/mn/mg liver protein) [4]: 0.022 nmoles/mn/mg liver protein
- metabolites formed in plasma [5]: single metabolite
